From PubChem BioAssay (NCI)
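48-hour exposure; five concentrations; linearly interpolated endpoints. GI50 = concentration required for 50% inhibition of growth. Definition used: TGI = concentration required for complete inhibition of growth.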

Legend:
Test in all cases: NCI tumour cell line growth inhibition, 48 h
U251 CNS = system: U251 CNS
A498 renal = system: A498 renal
SW-620 colon = system: SW-620 colon
OVCAR-8 ovarian = system: OVCAR-8 ovarian
HCT-15 colon = system: HCT-15 colon
MCF7 breast = system: MCF7 breast
SF-268 CNS = system: SF-268 CNS
SNB-75 CNS = system: SNB-75 CNS
PC-3 prostate = system: PC-3 prostate
MDA-MB-435 = system: MDA-MB-435

SMILES	TGI (U251 CNS) [µM]	TGI (A498 renal) [µM]	TGI (SW-620 colon) [µM]	TGI (OVCAR-8 ovarian) [µM]	TGI (HCT-15 colon) [µM]	GI50 (U251 CNS) [µM]	GI50 (A498 renal) [µM]	GI50 (SW-620 colon) [µM]	GI50 (MCF7 breast) [µM]	TGI (MCF7 breast) [µM]	GI50 (OVCAR-8 ovarian) [µM]	GI50 (HCT-15 colon) [µM]	GI50 (SF-268 CNS) [µM]	TGI (SF-268 CNS) [µM]	GI50 (SNB-75 CNS) [µM]	TGI (SNB-75 CNS) [µM]	GI50 (PC-3 prostate) [µM]	TGI (PC-3 prostate) [µM]	GI50 (MDA-MB-435) [µM]	TGI (MDA-MB-435) [µM]
O=C(NCCCCCCNC(=O)OCCSCCn1cc(C(=O)NC(=O)OCc2ccccc2)c(=O)[nH]c1=O)OCCSCCn1cc(C(=O)NC(=O)OCc2ccccc2)c(=O)[nH]c1=O	> 100	> 100	> 100	> 100	> 100															
COc1ccc(/C=C(\C#N)n2nnc3ccccc32)cc1	> 32.6	0.779	> 100	> 100	> 100	0.414	0.188	0.0603	0.328	> 100	0.416	0.0682	2.42	> 100	0.0327	0.337	0.293	> 60		
COc1ccc(CC(=O)NCCc2ccc(OC)c(OC)c2)cc1Br	> 100	> 100	> 100	> 100										> 100						
C=C1C(=O)OC2C=C(CCC(C)=O)C(C)C(OC(C)=O)CC12 (stereo not drawn)	31.1	30.1	1.22	36	20.1									32.8		24.4				
Cc1ccc(NC(=O)C(=O)CC(=O)c2c(C)n([O-])c3ccccc3[n+]2=O)cc1	92.3	> 100	> 100	55.8	89.4									96.2		58				
CC(C)(CN1CCCCC1)C(=O)/C=C/c1ccc(Cl)cc1	11.7	10.8	10.8	5.51	9.85									12.1		11.4				
CCOC(=O)/C(=C\c1cccs1)P(=O)(OCC)OCC	41.9		36.6	77.2	32.4									60.4		> 100				
Cc1cc(NS(=O)(=O)c2ccc(NC(=O)c3ccc(Cl)c4c(Nc5ccc(S(=O)(=O)N=C(N)N)cc5)c5ccccc5nc34)cc2)no1	38.9	> 100		> 100	> 100									> 100		95.6				
C[N+]1(C)C/C(=C\c2ccccc2)C(=O)/C(=C/c2ccccc2)C1	> 100	> 100		> 100	> 100									> 100		> 100				
CCCC/C=C1\CCC(C)(CN(C)C)C1=O (stereo not drawn)	> 100	> 100	> 100	> 100	> 100									> 100						
COc1ccccc1C1c2cc3c(cc2OC(O)(CO)C1C(=O)O)OCO3 (stereo not drawn) (tested in a mixture with another compound)	> 100	> 100	> 100	> 100	> 100									> 100		> 100				
C=C1C(=O)O[C@H]2[C@H]1CCC(/C=N/c1ncc(Br)cc1N)=C\CC[C@@]1(C)O[C@@H]21	18.1	17.5	3.3	10.9	4.01	5.06	4.82	1.33			2.98	1.49	2.86	11.1	3.38	18	2.26	11.1	2.29	7.51
